Patent publication US5283254A, “2-(imidazol-1-yl)-2-benzylethyldiene-aminoxyalkanoic acid derivatives” (Farmitalia Carlo Erba S.r.l., priority 1991, dated 1994)

Legend:
[1] = biological target: T1, TxA2 Synthase (Rattus norvegicus, UniProt P49430); assay: Inhibition of TxA2 synthase activity: TxB2 production in rat whole blood during clotting (serum, RIA), in vitro; assay type: cell-based; details: for inhibitory activity on TxA2 synthesis (in words): rat
T1 construct: TxB2 generated in whole blood during clotting; endogenous in cells; host or cells: rat whole blood (blood cells, mainly platelets), clotted 1 h at 37 °C
T1 sequence (P49430 1-533): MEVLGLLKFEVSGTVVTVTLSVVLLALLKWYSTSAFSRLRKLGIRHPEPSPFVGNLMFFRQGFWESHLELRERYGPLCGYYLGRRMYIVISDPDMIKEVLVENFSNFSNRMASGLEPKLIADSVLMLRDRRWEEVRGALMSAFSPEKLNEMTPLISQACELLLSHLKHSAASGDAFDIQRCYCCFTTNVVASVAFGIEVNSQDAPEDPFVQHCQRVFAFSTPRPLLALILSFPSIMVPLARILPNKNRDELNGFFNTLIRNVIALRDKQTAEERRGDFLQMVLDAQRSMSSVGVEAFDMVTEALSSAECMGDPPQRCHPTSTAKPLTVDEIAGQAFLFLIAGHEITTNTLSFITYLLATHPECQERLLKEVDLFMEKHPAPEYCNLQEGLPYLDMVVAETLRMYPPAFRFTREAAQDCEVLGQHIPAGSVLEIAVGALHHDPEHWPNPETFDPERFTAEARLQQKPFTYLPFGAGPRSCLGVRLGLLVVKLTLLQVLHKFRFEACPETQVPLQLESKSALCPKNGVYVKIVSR
Experimental: The compounds of formula (I) were for example tested for their ability to inhibit TxA2 Synthase activity (as reflected by TxB2 generated in whole blood during clotting or in isolated glomeruli) in vitro in the rat.
The in vitro experiments were carried out as follows:
The effect of the compounds on TxA2 synthesis was evaluated in serum.
Blood was withdrawn from the abdominal aorta of the animals under light ether anesthesia.
Samples were then allowed to clot for 1 h at 37° C., centrifuged at 3000 rpm for 10 min, serum collected and stored at -20° C. until assayed. TxB2 levels were determined by RIA according to previously described procedures [Patrono et al.--Thromb. Res. 17, 3/4, 317, 1980] using highly specific antibody.

[2] = biological target: T2, TxA2 receptor (Homo sapiens, UniProt P21731); assay: [3H]-SQ 29,548 binding displacement in washed human platelets (TxA2 antagonism)
T2 construct: endogenous in cells; host or cells: washed human platelets from healthy volunteers
T2 sequence (P21731 1-343): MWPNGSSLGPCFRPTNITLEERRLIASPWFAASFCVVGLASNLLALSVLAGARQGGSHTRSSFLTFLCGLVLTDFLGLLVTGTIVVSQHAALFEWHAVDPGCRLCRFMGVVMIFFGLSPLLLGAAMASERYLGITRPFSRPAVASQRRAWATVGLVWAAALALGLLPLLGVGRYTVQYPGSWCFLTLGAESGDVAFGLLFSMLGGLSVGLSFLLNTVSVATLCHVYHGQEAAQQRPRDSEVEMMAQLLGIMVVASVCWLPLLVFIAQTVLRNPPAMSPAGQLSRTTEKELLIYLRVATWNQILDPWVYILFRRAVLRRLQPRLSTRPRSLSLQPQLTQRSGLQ
Experimental: Platelet rich plasma (PRP), obtained by centrifugation of the blood at 200×g for 20 min, is washed twice (1000×g for 10 min). […] For displacement experiments various concentrations (10^-9 -10^-4 M) of competing ligands were added and incubated for 30 min at 25° C.
The binding data were analysed by computerized non-linear curve fitting using the Ligand program and expressed as IC50.

[3] = tested on: TxA2 synthase; details: known compound; cited from earlier work

SMILES	inhibitory activity on TxA2 synthesis (in words) [1]	IC50 ([1]; rat whole blood, n = 8 replicates, limits for p = 0.95 printed on following line, clotting 1 h at 37° C.)	inhibitory activity on TxA2 synthesis (in words) ([1]; listed as FCE 27109)	affinity for the receptor / TxA2 antagonism (in words) [2]	IC50 ([2]; 5 nM [3H]-SQ 29,548, 30 min at 25° C., pH 7.4)	TxA2 synthase inhibitory activity (in words) [3]
O=C(O)CCCCO/N=C(\c1ccccc1)C(Cc1ccc(F)cc1)n1ccnc1 (racemic) [FCE 27317, (±)-(E)-5-[1-phenyl-2-(imidazol-1-yl)-2-(4-fluorobenzyl)ethylidene]aminoxypentanoic acid]	marked inhibitory activity on TxA2 synthesis significantly more potent than that of reference compounds Dazoxiben and ASA	390 nM	active as TxA2 synthase inhibitor	good affinity for the receptor better than that showed by the known compound Sulotroban (BM 13177)	38.7 nM	
O=C(O)COc1ccc(CCNS(=O)(=O)c2ccccc2)cc1 [BM 13177]						devoid of TxA2 synthase inhibitory activity
